PubChem BioAssay (NCI)
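Assay format: 96-well plates, 48-hour exposure. Here, GI50 denotes the concentration required for 50% inhibition of growth. The concentration for full growth arrest is given as TGI.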

Experiments:
Assay in all cases: NCI-60 cell line screen, 48 h
UACC-62 melanoma = test system: UACC-62 melanoma
SK-MEL-2 melanoma = test system: SK-MEL-2 melanoma
M14 melanoma = test system: M14 melanoma
HCT-116 colon = test system: HCT-116 colon
A498 renal = test system: A498 renal
NCI-H460 lung = test system: NCI-H460 lung
IGROV1 ovarian = test system: IGROV1 ovarian
SW-620 colon = test system: SW-620 colon
SK-MEL-5 melanoma = test system: SK-MEL-5 melanoma
NCI-H23 lung = test system: NCI-H23 lung
OVCAR-3 ovarian = test system: OVCAR-3 ovarian
HCT-15 colon = test system: HCT-15 colon
LOX IMVI melanoma = test system: LOX IMVI melanoma
KM12 colon = test system: KM12 colon
SF-268 CNS = test system: SF-268 CNS
TK-10 renal = test system: TK-10 renal
SN12C renal = test system: SN12C renal
PC-3 prostate = test system: PC-3 prostate
DU-145 prostate = test system: DU-145 prostate
SF-539 CNS = test system: SF-539 CNS
NCI-H522 lung = test system: NCI-H522 lung
SK-MEL-28 melanoma = test system: SK-MEL-28 melanoma
MOLT-4 leukemia = test system: MOLT-4 leukemia
UACC-257 melanoma = test system: UACC-257 melanoma
U251 CNS = test system: U251 CNS
SK-OV-3 ovarian = test system: SK-OV-3 ovarian
MCF7 breast = test system: MCF7 breast
A549 NSCLC = test system: A549 NSCLC
HCC-2998 colon = test system: HCC-2998 colon
SNB-19 CNS = test system: SNB-19 CNS
RPMI-8226 leukemia = test system: RPMI-8226 leukemia
EKVX NSCLC = test system: EKVX NSCLC
HT29 colon = test system: HT29 colon
K-562 leukemia = test system: K-562 leukemia
T-47D breast = test system: T-47D breast
NCI/ADR-RES ovarian = test system: NCI/ADR-RES ovarian
OVCAR-4 ovarian = test system: OVCAR-4 ovarian
SNB-75 CNS = test system: SNB-75 CNS
OVCAR-8 ovarian = test system: OVCAR-8 ovarian
SF-295 CNS = test system: SF-295 CNS
HOP-92 NSCLC = test system: HOP-92 NSCLC
MDA-MB-231 breast = test system: MDA-MB-231 breast
UO-31 renal = test system: UO-31 renal
786-0 renal = test system: 786-0 renal
BT-549 breast = test system: BT-549 breast
MDA-MB-435 = test system: MDA-MB-435
CAKI-1 renal = test system: CAKI-1 renal
HS 578T breast = test system: HS 578T breast
ACHN renal = test system: ACHN renal
HOP-62 NSCLC = test system: HOP-62 NSCLC
CCRF-CEM leukemia = test system: CCRF-CEM leukemia

C[C@H]1[C@H](C)CC[C@]2(C(=O)Nc3ccc4ncccc4c3)CC[C@]3(C)C(=CC[C@@H]4[C@@]5(C)CCCNC(C)(C)[C@@H]5CC[C@]43C)[C@H]12 was tested, and the GI50 (UACC-62 melanoma) was 1.74 µM, the TGI (UACC-62 melanoma) was 3.23 µM and the GI50 (SK-MEL-2 melanoma) was 1.84 µM. The TGI (SK-MEL-2 melanoma) was 3.43 µM, the GI50 (M14 melanoma) was 1.94 µM and the TGI (M14 melanoma) was 3.59 µM. It also gave a GI50 (HCT-116 colon) of 1.6 µM, a TGI (HCT-116 colon) of 3.11 µM and a GI50 (A498 renal) of 1.56 µM. The TGI (A498 renal) was 2.96 µM, the GI50 (NCI-H460 lung) was 1.94 µM and the TGI (NCI-H460 lung) was 3.82 µM. For the same molecule, the GI50 (IGROV1 ovarian) was 1.7 µM, the TGI (IGROV1 ovarian) was 3.37 µM and the GI50 (SW-620 colon) was 1.8 µM. For the same molecule, the TGI (SW-620 colon) was 3.37 µM, the GI50 (SK-MEL-5 melanoma) was 1.85 µM and the TGI (SK-MEL-5 melanoma) was 3.32 µM.
In the case of O=C1c2ccccc2-c2c1c1ccccc1c(=O)n2CCCCl, the GI50 (NCI-H23 lung) is reported as 15.7 µM, the TGI (NCI-H23 lung) is reported as 50.1 µM and the GI50 (OVCAR-3 ovarian) is reported as 3.23 µM. For the same molecule, the TGI (OVCAR-3 ovarian) was 8.18 µM, the GI50 (HCT-15 colon) was 5.99 µM and the TGI (HCT-15 colon) was > 100 µM. For the same molecule, the GI50 (LOX IMVI melanoma) was 6.78 µM, the TGI (LOX IMVI melanoma) was 35.7 µM and the GI50 (KM12 colon) was 34 µM. For the same molecule, the TGI (KM12 colon) was > 100 µM, the GI50 (SF-268 CNS) was 10.3 µM and the TGI (SF-268 CNS) was 80.8 µM. The GI50 (TK-10 renal) was 3.26 µM, the TGI (TK-10 renal) was 14.3 µM and the GI50 (SN12C renal) was 12.1 µM. The TGI (SN12C renal) was 51.8 µM, the GI50 (PC-3 prostate) was 24.9 µM and the TGI (PC-3 prostate) was > 100 µM. The GI50 (DU-145 prostate) was 6.22 µM, the TGI (DU-145 prostate) was > 100 µM and the GI50 (SF-539 CNS) was 4.11 µM. For the same molecule, the TGI (SF-539 CNS) was 21.5 µM, the GI50 (NCI-H522 lung) was 37.4 µM and the TGI (NCI-H522 lung) was > 100 µM. For the same molecule, the GI50 (UACC-62 melanoma) was 6.75 µM, the TGI (UACC-62 melanoma) was 23.9 µM and the GI50 (SK-MEL-28 melanoma) was > 100 µM. For the same molecule, the TGI (SK-MEL-28 melanoma) was > 100 µM, the GI50 (MOLT-4 leukemia) was 1.61 µM and the TGI (MOLT-4 leukemia) was 4.38 µM. For the same molecule, the GI50 (UACC-257 melanoma) was 12.6 µM, the TGI (UACC-257 melanoma) was 76.5 µM and the GI50 (U251 CNS) was 11 µM. For the same molecule, the TGI (U251 CNS) was 31.5 µM, the GI50 (SK-OV-3 ovarian) was 19.1 µM and the TGI (SK-OV-3 ovarian) was 62.2 µM. It also gave a GI50 (MCF7 breast) of 2.18 µM, a TGI (MCF7 breast) of 62.4 µM and a GI50 (A549 NSCLC) of 3.23 µM. The TGI (A549 NSCLC) was 16 µM, the GI50 (SK-MEL-2 melanoma) was 47.4 µM and the TGI (SK-MEL-2 melanoma) was > 100 µM. The GI50 (HCC-2998 colon) was 10.4 µM, the TGI (HCC-2998 colon) was 96.6 µM and the GI50 (SNB-19 CNS) was 34.2 µM. The TGI (SNB-19 CNS) was > 100 µM, the GI50 (RPMI-8226 leukemia) was 61.7 µM and the TGI (RPMI-8226 leukemia) was > 100 µM. The GI50 (EKVX NSCLC) was 18.1 µM, the TGI (EKVX NSCLC) was > 100 µM and the GI50 (HT29 colon) was 37.2 µM. For the same molecule, the TGI (HT29 colon) was > 100 µM, the GI50 (M14 melanoma) was 35.5 µM and the TGI (M14 melanoma) was > 100 µM. The GI50 (K-562 leukemia) was 12.7 µM, the TGI (K-562 leukemia) was > 100 µM and the GI50 (T-47D breast) was 22.5 µM. For the same molecule, the TGI (T-47D breast) was > 100 µM, the GI50 (NCI/ADR-RES ovarian) was 16.9 µM and the TGI (NCI/ADR-RES ovarian) was 73.3 µM. For the same molecule, the GI50 (OVCAR-4 ovarian) was > 100 µM, the TGI (OVCAR-4 ovarian) was > 100 µM and the GI50 (SNB-75 CNS) was 8.4 µM. For the same molecule, the TGI (SNB-75 CNS) was 36.6 µM, the GI50 (HCT-116 colon) was 3.65 µM and the TGI (HCT-116 colon) was 17.8 µM. It also gave a GI50 (OVCAR-8 ovarian) of 9.28 µM, a TGI (OVCAR-8 ovarian) of 44.8 µM and a GI50 (SF-295 CNS) of 6.34 µM. For the same molecule, the TGI (SF-295 CNS) was 23.1 µM, the GI50 (HOP-92 NSCLC) was 16.8 µM and the TGI (HOP-92 NSCLC) was 43.3 µM. It also gave a GI50 (MDA-MB-231 breast) of 11.4 µM, a TGI (MDA-MB-231 breast) of 39.8 µM and a GI50 (UO-31 renal) of 6.47 µM. It also gave a TGI (UO-31 renal) of 69.2 µM, a GI50 (786-0 renal) of 4.86 µM and a TGI (786-0 renal) of 18.2 µM. It also gave a GI50 (A498 renal) of 7.88 µM, a TGI (A498 renal) of 28.5 µM and a GI50 (NCI-H460 lung) of 3.57 µM. The TGI (NCI-H460 lung) was > 100 µM, the GI50 (BT-549 breast) was 14.6 µM and the TGI (BT-549 breast) was 58.3 µM. The GI50 (MDA-MB-435) was 28 µM, the TGI (MDA-MB-435) was > 100 µM and the GI50 (CAKI-1 renal) was 3.63 µM. It also gave a TGI (CAKI-1 renal) of 19.1 µM, a GI50 (HS 578T breast) of 17.6 µM and a TGI (HS 578T breast) of 73.5 µM. For the same molecule, the GI50 (ACHN renal) was 3.03 µM, the TGI (ACHN renal) was 12.3 µM and the GI50 (SW-620 colon) was 8.75 µM. The TGI (SW-620 colon) was > 100 µM, the GI50 (HOP-62 NSCLC) was 1.77 µM and the TGI (HOP-62 NSCLC) was 6.57 µM. The GI50 (CCRF-CEM leukemia) was 3.86 µM, the TGI (CCRF-CEM leukemia) was > 100 µM and the GI50 (SK-MEL-5 melanoma) was 5.92 µM. The TGI (SK-MEL-5 melanoma) was > 100 µM.
